This passage reports IC50 results from ChEMBL document CHEMBL1152343, “2-Arylbenzofuran Derivatives from Morus cathayana” (J Nat Prod, 2009).

SMILES strings stand for the structures. Converted amounts (≈) assume the structure as drawn.

The IC50 is the midpoint of a concentration-inhibition curve. Lower therefore signals higher potency.

Holding throughout (format): functional, cell-based
Test [1] relates to HCT-8. Put plainly: Cytotoxicity against human HCT8 […] by MTT assay. On the technique in general: Formazan colour is commonly taken as a measure of viable cells.
Test [2] has as its system A549. Description: Cytotoxicity against human A549 […] by MTT assay.
Test [3] relates to A2780. Put plainly: Cytotoxicity against human A2780 […] by MTT assay.
The test system of test [4] is BGC-823. Put plainly: Cytotoxicity against human BGC823 […] by MTT assay.

On to `O=c1[nH]cc(F)c(=O)[nH]1` [FLUOROURACIL], for which the IC50 in test [1], in test [2], in test [3] and in test [4] was 0.2 µg/mL (≈ 1.54 µM) in each case.
For `CC(C)=CCc1c(O)cc2c(c1-c1cc3ccc(O)cc3o1)C=CC(C)(C)O2` [CATHAFURAN C], the half-inhibitory concentration (IC50) in test [1] is 7.33 µg/mL (≈ 19.5 µM); in test [3] it was 7.61 µg/mL (≈ 20.2 µM).
With `CC(C)=CCc1c(O)cc(O)cc1-c1cc2ccc(O)c(CC=C(C)C)c2o1` [CATHAFURAN B], the IC50 in test [1], in test [2], in test [3] and in test [4] was 6.27 µg/mL (≈ 16.6 µM) each time.
